Read-outs that look alike come from different tables or passages of the source.
Biological target: T1, V600E full-length B-Raf (Homo sapiens, UniProt P15056, V600E)
T1 construct: 1 μM FSBA-MEK and 20 nM V600E full-length B-Raf; made in house; host or cells: sf9 insect cells (baculovirus)
Test: B-Raf IC50 Assay (B-RAF V600E inhibition assay, Example A)
Type: biochemical
Summary of the method: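 Full-length V600E B-Raf (20 nM, from Sf9 baculovirus) was preincubated 15 min with 1 μM FSBA-modified wild-type MEK in pH 7.2 Pipes/KCl/MgCl2 buffer, then started with 4 μM ATP plus [γ-33P]ATP. After 60 min at 22 °C, TCA-quenched product was filter-captured and 33P incorporation counted by scintillation.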

[1] = B-Raf V600E assay of Example A: less than about 1 μM, read-out: IC50
[2] = incorporation of radio labeled phosphate from [γ-33P]ATP into FSBA-modified wild-type MEK, 4 μM ATP, 20 nM V600E full-length B-Raf, 60-minute incubation, 22° C., read-out: BRAF V600E IC50
[3] = B-Raf V600E assay of Example A: less than 100 nM, read-out: IC50

T1 sequence (P15056 whole entry V600E): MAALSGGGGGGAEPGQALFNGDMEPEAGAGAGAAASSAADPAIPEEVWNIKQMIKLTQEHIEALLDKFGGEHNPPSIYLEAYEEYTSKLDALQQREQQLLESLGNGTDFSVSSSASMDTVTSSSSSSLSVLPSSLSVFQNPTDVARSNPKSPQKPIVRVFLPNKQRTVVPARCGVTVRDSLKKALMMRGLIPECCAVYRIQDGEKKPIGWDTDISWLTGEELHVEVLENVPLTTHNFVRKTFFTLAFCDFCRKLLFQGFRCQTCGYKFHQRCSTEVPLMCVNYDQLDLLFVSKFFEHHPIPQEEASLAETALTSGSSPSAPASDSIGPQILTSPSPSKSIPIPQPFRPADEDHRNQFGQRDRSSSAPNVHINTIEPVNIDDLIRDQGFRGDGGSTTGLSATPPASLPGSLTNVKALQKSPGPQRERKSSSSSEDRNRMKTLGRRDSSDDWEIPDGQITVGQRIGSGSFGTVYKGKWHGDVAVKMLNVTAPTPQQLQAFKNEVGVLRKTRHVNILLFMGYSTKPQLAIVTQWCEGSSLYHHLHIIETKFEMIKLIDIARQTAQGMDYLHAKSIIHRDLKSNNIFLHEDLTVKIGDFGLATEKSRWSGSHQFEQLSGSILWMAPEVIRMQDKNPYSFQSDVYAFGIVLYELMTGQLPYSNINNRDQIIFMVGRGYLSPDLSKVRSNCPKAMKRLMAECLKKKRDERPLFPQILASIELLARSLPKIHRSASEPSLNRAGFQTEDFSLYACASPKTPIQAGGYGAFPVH

| IC50 [1] [nM] | IC50 [2] [nM] | IC50 [3] [nM] | Compound |
| --- | --- | --- | --- |
| < 1000 | 110 | – | CCCS(=O)(=O)Nc1ccc(Cl)c(NC(=O)c2csc3c(NC4CCCCC4)ncnc23)c1Cl [Example 81, 4-Cyclohexyl-amino-thieno [3,2-d] pyrimidine-7-carboxylic acid [2,6-dichloro-3-(propane-1-sulfonyl-amino)-phenyl]-amide] |
| < 1000 | 0.13 | < 100 | O=C(Nc1c(Cl)ccc(NS(=O)(=O)CCCF)c1Cl)c1csc2c(NC3CC3)ncnc12 [Example 82, 4-Cyclopropyl-amino-thieno [3,2-d] pyrimidine-7-carboxylic acid [2,6-dichloro-3-(3-fluoro-propane-1-sulfonyl-amino)-phenyl]-amide] |
| < 1000 | 0.32 | < 100 | CCNc1ncnc2c(C(=O)Nc3c(Cl)ccc(NS(=O)(=O)CCCF)c3Cl)csc12 [Example 83, 4-Ethylamino-thieno[3,2-d] pyrimidine-7-carboxylic acid [2,6-dichloro-3-(3-fluoro-propane-1-sulfonyl-amino)-phenyl]-amide] |
| < 1000 | 0.25 | < 100 | O=C(Nc1c(Cl)ccc(NS(=O)(=O)CCCF)c1F)c1csc2c(NC3CC3)ncnc12 [Example 84, 4-Cyclopropyl-amino-thieno [3,2-d] pyrimidine-7-carboxylic acid [6-chloro-2-fluoro-3-(3-fluoropropane-1-sulfonyl-amino)-phenyl]-amide] |
| < 1000 | 5.1 | < 100 | CCCS(=O)(=O)Nc1cc(F)c(F)c(NC(=O)c2csc3c(NCC)ncnc23)c1F [Example 85, 4-Ethylamino-thieno[3,2-d] pyrimidine-7-carboxylic acid [2,3,6-trifluoro-5-(propane-1-sulfonyl-amino)-phenyl]-amide] |
| < 1000 | 1.2 | < 100 | CCCS(=O)(=O)Nc1cc(F)c(F)c(NC(=O)c2csc3c(NC4CC4)ncnc23)c1F [Example 86, 4-Cyclopropyl-amino-thieno [3,2-d] pyrimidine-7-carboxylic acid [2,3,6-trifluoro-5-(propane-1-sulfonyl-amino)-phenyl]-amide] |
| < 1000 | 15.1 | < 100 | CCCS(=O)(=O)Nc1cc(F)c(F)c(NC(=O)c2csc3c(NC4COC4)ncnc23)c1F [Example 87, 4-(Oxetan-3-ylamino)-thieno[3,2-d] pyrimidine-7-carboxylic acid [2,3,6-trifluoro-5-(propane-1-sulfonyl-amino)-phenyl]amid] |
| < 1000 | 120 | – | CCCS(=O)(=O)Nc1cc(F)c(F)c(NC(=O)c2csc3c(NC4CCOC4)ncnc23)c1F (centres unmarked) [Example 88, 4-(Tetrahydro-furan-3-ylamino)-thieno[3,2-d] pyrimidine-7-carboxylic acid [2,3,6-trifluoro-5-(propane-1-sulfonyl-amino)-phenyl]-amide] |
| < 1000 | 3.7 | < 100 | CCCS(=O)(=O)Nc1cc(F)c(F)c(NC(=O)c2csc3c(NCCF)ncnc23)c1F [Example 89, 4-(2-Fluoro-ethylamino)-thieno[3,2-d] pyrimidine-7-carboxylic acid [2,3,6-trifluoro-5-(propane-1-sulfonyl-amino)e-phenyl]-amid] |
| < 1000 | 16 | < 100 | CCCS(=O)(=O)Nc1cc(F)c(F)c(NC(=O)c2csc3c(NCC(F)F)ncnc23)c1F [Example 90, 4-(2,2-Difluoro-ethylamino)-thieno[3,2-d] pyrimidine-7-carboxylic acid [2,3,6-trifluoro-5-(propane-1-sulfonyl-amino)-phenyl]-amide] |
| < 1000 | 27.9 | < 100 | CCCS(=O)(=O)Nc1cc(F)c(F)c(NC(=O)c2csc3c(NC(C)C)ncnc23)c1F [Example 91, 4-Isopropyl-amino-thieno [3,2-d] pyrimidine-7-carboxylic acid [2,3,6-trifluoro-5-(propane-1-sulfonyl-amino)-phenyl]-amide] |
| < 1000 | 13.2 | < 100 | CCCS(=O)(=O)Nc1cc(F)c(F)c(NC(=O)c2csc3c(NC)ncnc23)c1F [Example 92, 4-Methyl-amino-thieno[3,2-d] pyrimidine-7-carboxylic acid [2,3,6-trifluoro-5-(propane-1-sulfonyl-amino)-phenyl]-amide] |
| < 1000 | 118 | – | CCCS(=O)(=O)Nc1cc(F)c(F)c(NC(=O)c2csc3c(NC4CC(F)(F)C4)ncnc23)c1F [Example 93, 4-(3,3-Difluoro-cyclobutyl-amino)-thieno[3,2-d] pyrimidine-7-carboxylic acid [2,3,6-trifluoro-5-(propane-1-sulfonyl-amino)-phenyl]-amide] |
| < 1000 | 704 | – | CCCS(=O)(=O)Nc1cc(F)c(F)c(NC(=O)c2csc3c(NC4CCOCC4)ncnc23)c1F [Example 94, 4-(Tetrahydro-pyran-4-ylamino)-thieno[3,2-d] pyrimidine-7-carboxylic acid [2,3,6-trifluoro-5-(propane-1-sulfonyl-amino)-phenyl]-amide] |
| < 1000 | 5.09 | < 100 | CCCS(=O)(=O)Nc1cc(F)c(F)c(NC(=O)c2csc3c(NN4CCOCC4)ncnc23)c1F [Example 95, 4-(Morpholin-4-ylamino)-thieno[3,2-d] pyrimidine-7-carboxylic acid [2,3,6-trifluoro-5-(propane-1-sulfonyl-amino)-phenyl]-amide] |
| < 1000 | 0.71 | < 100 | O=C(Nc1c(F)c(F)cc(NS(=O)(=O)CCCF)c1F)c1csc2c(NC3CC3)ncnc12 [Example 97, 4-Cyclopropyl-amino-thieno [3,2-d] pyrimidine-7-carboxylic acid [2,3,6-trifluoro-5-(3-fluoro-propane-1-sulfonyl-amino)-phenyl]-amide] |
| < 1000 | 2.16 | < 100 | CCNc1ncnc2c(C(=O)Nc3c(F)c(F)cc(NS(=O)(=O)CCCF)c3F)csc12 [Example 98, 4-Ethylamino-thieno[3,2-d] pyrimidine-7-carboxylic acid [2,3,6-trifluoro-5-(3-fluoro-propane-1-sulfonyl-amino)-phenyl]-amide] |
| < 1000 | 3 | < 100 | CCCS(=O)(=O)Nc1ccc(F)c(NC(=O)c2sc(C)c3c(N)ncnc23)c1F [Example 99, 4-Amino-5-methyl-thieno[3,4-a]pyrimidine-7-carboxylic acid [2,6-difluoro-3-(propane-1-sulfonylamino)-phenyl]-amide] |
| < 1000 | 29.8 | < 100 | CCCS(=O)(=O)Nc1ccc(F)c(NC(=O)c2scc3c(N)ncnc23)c1F [Example 100, 4-Amino-N-(2,6-difluoro-3-(propylsulfonamido)phenyl)thieno[3,4-d]pyrimidine-7-carboxamide] |
| < 1000 | 2.5 | < 100 | CCCS(=O)(=O)Nc1ccc(F)c(NC(=O)c2ccc3c(N)ncnn23)c1F [Example 101, 4-Amino-pyrrolo[2,1-f][1,2,4]triazine-7-carboxylic acid [2,6-difluoro-3-(propane-1-sulfonylamino)-phenyl]-amide] |

Reference: patent US20120157439A1, “RAF INHIBITOR COMPOUNDS AND METHODS OF USE THEREOF” (GENENTECH, INC., priority 2009, published 2012)
